Laboratory results taken from patent US11241480B2, “Methods for modulation of dietary and microbial exposure with compositions comprising an EGFR ligand” (Washington University, priority 2017, dated 2022).

Key:
[1] = test system: C57BL/6 mice; assay: DSS colitis after early-life manipulation of GAPs; type: in vivo; settings: 3% DSS DOL30-38
Procedure: Treatments to alter GAPs: Acute induction or inhibition of GAPs was performed as previously described. Mice were given 500 μg/kg tyrphostin AG1478 i.p. to inhibit of EGFR activation, 10 mg/kg U0126 i.p. to inhibit MAPK/ERK (MEK1/MEK2) activation, 150 μg/kg carbamylcholine (acetycholine analogue) i.p., 100 mg/kg tropicamide (mAChR4 selective antagonist) i.p., 1 μg recombinant murine EGF (Shenandoah) in 20 μl PBS intracolonic, 10 μg LPS intraluminally, or 100 μl stomach contents from a DOL10 mice intraluminally, or 100 μl heat killed cecal contents from SPF housed adult mice intraluminally. Reagents from Sigma Aldrich, St. Louis, Mo. unless otherwise noted.
Adoptive T cell Transfer: 10^5 splenic CD4^+ T cells from CD45.1 CBir1 TCR transgenic mice, CD45.1+ DP1 TCR transgenic mice, or CD45.1+ OTII TCR transgenic mouse were enriched by magnetic particles (Stemcell Technology, #19752 Vancouver, British Columbia, Canada) and injected i.v. into mice. In some experiments cells were labeled with CFSE prior to injection, and MLNs of recipient mice were analyzed three days posts transfer. Mice were analyzed seven days posts transfer to evaluate the presence of the transferred population in the LP. In some experiments, in FIG. 34, FIG. 37, and FIG. 39, cells were transferred on DOL 16, and analyzed on DOL 30 or after 8 days of DSS treatment on DOL 38.
DSS colitis: Mice were given DSS (36,000-50,000 MW, Reagent grade, MP Biomedicals) in drinking water ad libitum for eight days. Math1^fl/fl ERT2^ViCre mice and litter mates were given 1.5% DSS due to their increased susceptibility to disease. Weight was measured daily. On the final day, colons were measured for length to assess shortening, and were fixed in buffered formalin and embedded in paraffin for sectioning. H/E sections were scored for disease as before. In some experiments, colon LP was isolated on the final day of DSS treatment to analyze endogenous T cell and transferred CBir1 T cell populations.

[2] = test system: goblet cell associated antigen passages (GAPs); assay: Enumeration of goblet cell associated antigen passages (GAPs) in SI and colon by in vivo two-photon imaging and fixed sections; design: species or system mice
Procedure: Intravital two-photon (2P) microscopy: Mice were anesthetized using nebulized isofluorane in 95% O2/5% CO2. Intravital preparation of the intestine was performed as previously described. To detect GAPs, lysine fixable fluorescently-labeled dextran 10,000 MW (10 mg/mL) and diamidino-2-phenylindole (DAPI; 10 mg/mL) were injected intraluminally 20 minutes prior to imaging, and imaging was performed for up to one hour. To detect paracellular leak fluorescently labeled dextran 3,000 MW (10 mg/mL) and DAPI (10 mg/mL) were injected intraluminally 20 minutes prior to imaging. To detect the extension of trans-epithelial dendrites by APCs, CD11c^YFP or CX3CR1^GFP were imaged as above using 10,000 MW fluorescent dextran to outline the epithelial surface. Tissues were excited using a Ti:sapphire laser tuned to 890 nm (Chameleon X R, Coherent). Time-lapse imaging was performed with a custom-built 2P microscope running ImageWarp acquisition software (A&B Software, New London, Conn.). Epithelial integrity was assessed by dextran and DAPI staining as described. Following imaging, tissues were placed in 10% formalin buffered phosphate solution (Fisher Scientific) to fix dextrans in place to confirm 2P findings and for further analysis by immunofluorescence microscopy.
In some experiments mice were treated with 150 μg/kg carbachol chloride i.p. 10 minutes before dextran, 100 mg/kg tropicamide (mAChR4 selective antagonist) i.p. 20 minutes before dextran, 500 μg/kg tyrphostin AG1478 (inhibitor of EGFR phosphorylation) i.p. 20 minutes before dextran, 10 mg/kg U-0126 (inhibitor of p42/p44 MAPK phosphorylation) i.p. 20 minutes before dextran, 1-1000 ng EGF (Shenandoah Biotechnologies) injected intraluminally 20 minutes before dextran, 10 μg LPS injected intraluminally 20 minutes before dextran, or 100 μl stomach contents from a DOL 10 mice, or 100 μl heat killed cecal contents from SPF housed adult mice injected intraluminally 20 minutes before dextran was administered. All reagents from Sigma Aldrich, St. Louis, Mo. unless otherwise noted.
Enumeration of GAPs: GAPs were identified as dextran-filled columns measuring approximately 20 μm (height)×5 μm (diameter) traversing the epithelium and containing a nucleus. GAPs were enumerated in the jejunum or mid-transverse colon using Z-stack images of a volume of 225 μm(x) by 250 μm(y) by 50 μm(z) acquired during in vivo 2P imaging as described above. SI GAPs were enumerated as GAPs per villus. When present, colonic GAPs were found on both the surface epithelium and within the crypts, but were enumerated as GAPs per crypt due to difficulty in distinguishing dextran filled GAPs from luminal dextran during in vivo imaging. De-identified and coded video clips were evaluated by a blinded investigator to enumerate GAPS in early life. The number of GAPs per villus and GAPs per crypt seen by 2P imaging were confirmed by immunofluorescence microscopy of tissues that were fixed following 2P imaging. To quantify GAPs per GC, lysine fixable 10,000 MW fluorescent dextran was injected into the lumen and intestines harvested 25 min later. Tissues were fixed with 10% formalin buffered saline for 45 min, sectioned, and stained with antibodies directed against cyt18. GCs were identified cyt18+ epithelial cells with GC morphology and GAPs as dextran containing epithelial cells defined as above.
Intravital two-photon (2P) microscopy: Mice were anesthetized using nebulized isofluorane in 95% O2/5% CO2. Intravital preparation of the intestine was performed as previously described. To detect GAPs, tetramethylrodamine labeled dextran 10,000 MW (10 mg/mL) or fluorescein labeled dextran 10,000 MW (10 mg/mL) and diamidino-2-phenylindole (DAPI; 10 mg/mL) were injected intraluminally 20 minutes prior to imaging and imaging was performed for up to one hour. Tissues were excited using a Ti:sapphire laser tuned to 890 nm (Chameleon XR, Coherent). […]

[3] = EGF on DOL10-21 or EGFR inhibition on DOL 24 and 26
[4] = EGFR inhibitors on DOL14 and 16 (post-neonatal phase)

Compound: EGF: recombinant murine EGF (Shenandoah); EGFR ligand, given luminally or intracolonically
- Foxp3 expression of transferred CBir1 T cells after DSS [1, 3]: significantly reduced Foxp3 expression
- disease severity in DSS colitis (histology, colon length) [1, 3]: developed significantly worse disease
- expansion of CBir1 T cells in colon LP after DSS [1, 3]: significant expansion of CBir1 T cells in colon LP
- inflammatory cytokines of transferred CBir1 T cells after DSS [1, 3]: significantly increased inflammatory cytokines
- weight loss in DSS colitis [1, 3]: lost significantly more weight
- colonic GAP formation / dextran uptake by colonic epithelial cells ([2]; DOL 14 mice (post-neonatal phase), wildtype): inhibited
- colonic GAP formation ([2]; DOL 18 mice (post-neonatal phase), agent given luminally): inhibited GAPs
- luminal EGF concentration below which colonic and SI GCs formed GAPs (a concentration that inhibits GAPs on short term exposure) ([2]; DOL ~10 (colon) and DOL ~18 (SI)): < 1000 µg/mL

Compound: COc1cc2ncnc(Nc3cccc(Cl)c3)c2cc1OC [EGFRi, tyrphostin AG1478]
- Foxp3 expression of transferred CBir1 T cells after DSS [1, 3]: significantly reduced Foxp3 expression
- disease severity in DSS colitis (histology, colon length) [1, 3]: developed significantly worse disease
- expansion of CBir1 T cells in colon LP after DSS [1, 3]: significant expansion of CBir1 T cells in colon LP
- inflammatory cytokines of transferred CBir1 T cells after DSS [1, 3]: significantly increased inflammatory cytokines
- weight loss in DSS colitis [1, 3]: lost significantly more weight
- Foxp3 and inflammatory cytokine expression of CBir1 T cells after DSS [1, 4]: continued expressing Foxp3 but not inflammatory cytokines
- expansion of CBir1 T cells in colon LP after DSS [1, 4]: did not expand further in the colon LP
- GAP formation in SI and colon ([2]; DOL 8 mice (neonatal phase)): induced colonic and SI GAPs
- SI GAP formation ([2]; DOL 18 mice): induced
- colonic GAP formation ([2]; DOL 28, post weaning): induced
- GAP formation in the SI and colon ([2]; all phases of early life (DOL8, 18, 28)): allowed GAP formation in the SI and colon during all phases of early life
